Patent US9617258B2, “Pyrrolo[2,3-d]pyrimidinyl, pyrrolo[2,3-b]pyrazinyl and pyrrolo[2,3-d]pyridinyl acrylamides” (Pfizer Inc., priority 2013, dated 2017)

assay: Stability of JAK3 covalent inhibitors in human whole blood; assay type: in vitro ADME; details: both sexes, whole blood, 37° C., read-out: Human blood stability t1/2;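 further: parent compound remaining over incubation time quantified by LC-MS/MS as peak area ratio against an internal standard, using pooled K2-EDTA blood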

half-life at 1 μM [h]	Compound
> 6	C=CC(=O)N1CCC(Nc2cnc3[nH]cc(C(=O)NC4CC(F)C4)c3n2)CC1 (centres unmarked) [Example 243, 2-[(1-acryloylpiperidin-4-yl)amino]-N-(3-fluorocyclobutyl)-5H-pyrrolo[2,3-b]pyrazine-7-carboxamide]
2.8	C=CC(=O)N1CC[C@@H]2OCCN(c3ncnc4[nH]ccc34)[C@@H]2C1 [Example 90, 1-[(4aR,8aS)-4-(7H-Pyrrolo[2,3-d]pyrimidin-4-yl)hexahydro-2H-pyrido[4,3-b][1,4]oxazin-6(5H)-yl]prop-2-en-1-one]
4.45	C=CC(=O)N1C[C@H](C)C[C@@H](Nc2ncnc3[nH]ccc23)C1 (racemic) [Example 65, Rac-1-((3R,5R)-3-((7H-Pyrrolo[2,3-d]pyrimidin-4-yl)amino)-5-methylpiperidin-1-yl)prop-2-en-1-one]
> 6	C=CC(=O)N1CCC[C@@H](Nc2ncnc3[nH]cc(-c4ccc(OCC)nc4)c23)C1 [Example 33, 1-[(3R)-3-{[5-(6-ethoxypyridin-3-yl)-7H-pyrrolo[2,3-d]pyrimidin-4-yl]amino}piperidin-1-yl]prop-2-en-1-one]
3.67	C=CC(=O)N1CCC(Nc2cnc3[nH]cc(C(=O)NC(C)C4CC4)c3n2)CC1 (centres unmarked) [Example 288, 2-[(1-acryloylpiperidin-4-yl)amino]-N-(1-cyclopropylethyl)-5H-pyrrolo[2,3-b]pyrazine-7-carboxamide]
5.47	C=CC(=O)N1CCC(Oc2cnc3[nH]cc(C(=O)NC(C)(C)C)c3n2)CC1 [Example 338, 2-((1-Acryloylpiperidin-4-yl)oxy)-N-(tert-butyl)-5H-pyrrolo[2,3-b]pyrazine-7-carboxamide]
> 6	C=CC(=O)N1CC[C@H](Nc2cnc3[nH]cc(C(=O)NC(C)C)c3n2)[C@H](OC)C1 [Example 317, 2-{[(3R,4S)-1-acryloyl-3-methoxypiperidin-4-yl]amino}-N-(propan-2-yl)-5H-pyrrolo[2,3-b]pyrazine-7-carboxamide]
5.68	C=CC(=O)N1CCN(c2cnc3[nH]cc(C(=O)NC(C)C)c3n2)C[C@@H]1CC(C)C [Example 303, 2-[(3S)-4-acryloyl-3-(2-methylpropyl)piperazin-1-yl]-N-(propan-2-yl)-5H -pyrrolo[2,3-b]pyrazine-7-carboxamide]
> 5.82	C=CC(=O)N1C[C@H](Nc2ccnc3[nH]cc(C#N)c23)CC[C@@H]1C [Example 165, 4-{[(3R,6S)-1-Acryloyl-6-methylpiperidin-3-yl]amino}-1H-pyrrolo[2,3-b]pyridine-3-carbonitrile]
3.25	C=CC(=O)N1CC[C@@H]2CCN(c3nc(N)nc4[nH]ccc34)[C@@H]2C1 [Example 73, 1-[(3aS,7aS)-1-(2-Amino-7H-pyrrolo[2,3-d]pyrimidin-4-yl)octahydro-6H-pyrrolo[2,3-c]pyridin-6-yl]prop-2-en-1-one]
2.72	C=CC(=O)N1C[C@H](F)C[C@@H](Nc2ncnc3[nH]ccc23)C1 [Example 10, 1-((3R,5R)-3-((7H-pyrrolo[2,3-d]pyrimidin-4-yl)amino)-5-fluoropiperidin-1-yl)prop-2-en-1-one]
> 6	C=CC(=O)N1CCC[C@@H](Nc2ncnc3[nH]cc(F)c23)C1 [Example 42, 1-{(3R)-3-[(5-fluoro-7H-pyrrolo[2,3-d]pyrimidin-4-yl)amino]piperidin-1-yl}prop-2-en-1-one]
> 6	C=CC(=O)N1CC[C@@H](Nc2cnc3[nH]cc(C(=O)NC(C)C)c3n2)[C@@H](OC)C1 [Example 302, 2-{[(3S,4R)-1-acryloyl-3-methoxypiperidin-4-yl]amino}-N-(propan-2-yl)-5H-pyrrolo[2,3-b]pyrazine-7-carboxamide]
> 6	C/C=C/C(=O)N1CCC[C@@H](Nc2ncnc3[nH]ccc23)C1 [Example 95, (2E)-1-[(3R)-3-(7H-pyrrolo[2,3-d]pyrimidin-4-ylamino)piperidin-1-yl]but-2-en-1-one]
> 6	COCCc1c[nH]c2ncnc(N[C@@H]3CCCN(C(=O)/C=C/CN(C)C)C3)c12 [Example 108, (2E)-4-(dimethylamino)-1-[(3R)-3-{[5-(2-methoxyethyl)-7H-pyrrolo[2,3-d]pyrimidin-4-yl]amino}pipendin-1-yl]but-2-en-1-one]
5.78	C=CC(=O)N1C[C@@H](C)C[C@@H](Nc2ncnc3[nH]ccc23)C1 (racemic) [Example 22, rac-cis-1-((3R,5S)-3-((7H-Pyrrolo[2,3-d]pyrimidin-4-yl)amino)-5-methylpiperidin-1-yl)prop-2-en-1-one]
> 6	C=CC(=O)N1CCC(Oc2cnc3[nH]cc(-c4ccnc(C)c4)c3n2)CC1 [Example 220, 1-(4-{[7-(2-methylpyridin-4-yl)-5H-pyrrolo[2,3-b]pyrazin-2-yl]oxy}piperidin-1-yl)prop-2-en-1-one]
5.08	C=CC(=O)N1C[C@H](Nc2ncnc3[nH]cc(CCOC)c23)CC[C@@H]1C [Example 13]
4.83	C=CC(=O)N1C[C@H](Nc2ncnc3[nH]cc(C#N)c23)CC[C@@H]1C [Example 163, 4-{[(3R,6S)-1-Acryloyl-6-methylpiperidin-3-yl]amino}-7H-pyrrolo[2,3-d]pyrimidine-5-carbonitrile]

half-life at 1 μM [h]	Compound
5.72	C=CC(=O)N1CCC[C@](C)(Nc2ncnc3[nH]ccc23)C1 [Example 70, (S)-1-(3-((7H-Pyrrolo[2,3-d]pyrimidin-4-yl)amino)-3-methylpiperidin-1-yl)prop-2-en-1-one]
> 4.18	C=CC(=O)N1C[C@@H](C)C[C@@H](Nc2ncnc3[nH]ccc23)C1 (single isomer, unassigned) [Example 14]
4.2	C=CC(=O)N1C[C@H](Nc2ncnc3[nH]ccc23)C[C@@H](OC)C1 [Example 77, 1-[(3R,5R)-3-Methoxy-5-(7H-pyrrolo[2,3-d]pyrimidin-4-ylamino)piperidin-1-yl]prop-2-en-1-one]
3.92	C=CC(=O)N1CCC(Nc2cnc3[nH]cc(C(=O)NCCCC(F)(F)F)c3n2)CC1 [Example 240, 2-[(1-acryloylpiperidin-4-yl)amino]-N-(4,4,4-trifluorobutyl)-5H-pyrrolo[2,3-b]pyrazine-7-carboxamide]
> 6	C=CC(=O)N1CCC(Nc2cnc3[nH]cc(C(=O)N[C@H](C)CCC)c3n2)CC1 [Example 274, 2-[(1-acryloylpiperidin-4-yl)amino]-N-[(2R)-pentan-2-yl]-5H-pyrrolo[2,3-b]pyrazine-7-carboxamide]
> 6	C=CC(=O)N1CCC(Nc2cnc3[nH]cc(C(=O)N[C@H](C)CC)c3n2)CC1 [Example 289, 2-[(1-acryloylpiperidin-4-yl)amino]-N-[(2R)-butan-2-yl]-5H-pyrrolo[2,3-b]pyrazine-7-carboxamide]
4.57	C=CC(=O)N1CCC[C@@H](Nc2ncnc3[nH]cc(C)c23)C1 [Example 43, 1-{(3R)-3-[(5-methyl-7H-pyrrolo[2,3-d]pyrimidin-4-yl)amino]piperidin-1-yl}prop-2-en-1-one]
> 6	C=CC(=O)N1CCC[C@@H](Nc2ncnc3[nH]cc(-c4cnn(C)c4)c23)C1 [Example 28, 1-[(3R)-3-{[5-(1-methyl-1H-pyrazol-4-yl)-7H-pyrrolo[2,3-d]pyrimidin-4-yl]amino}piperidin-1-yl]prop-2-en-1-one]
> 6	C=C(C)C(=O)N1CC[C@@H]2CCN(c3ncnc4[nH]ccc34)[C@@H]2C1 [Example 85, 2-methyl-1-[(3aS,7aS)-1-(7H-pyrrolo[2,3-d]pyrimidin-4-yl)octahydro-6H-pyrrolo[2,3-c]pyridin-6-yl]prop-2-en-1-one]
5.6	C=CC(=O)N1CCC(Nc2cnc3[nH]cc(C(=O)NC(C)(C)C)c3n2)CC1 [Example 266, 2-[(1-acryloylpiperidin-4-yl)amino]-N-tert-butyl-5H-pyrrolo[2,3-b]pyrazine-7-carboxamide]
4.27	C=CC(=O)N1CCC(Nc2cnc3[nH]cc(C(=O)NCCCC)c3n2)CC1 [Example 269, 2-[(1-acryloylpiperidin-4-yl)amino]-N-butyl-5H-pyrrolo[2,3-b]pyrazine-7-carboxamide]
5.77	C=CC(=O)N1CCC(Nc2cnc3[nH]cc(C(=O)NC45CC(C4)C5)c3n2)CC1 [Example 281, 2-[(1-acryloylpiperidin-4-yl)amino]-N-(bicyclo[1.1.1]pent-1-yl)-5H-pyrrolo[2,3-b]pyrazine-7-carboxamide]
> 6	C=CC(=O)N1CCC[C@@H](Nc2ncnc3[nH]cc(-c4cncc(F)c4)c23)C1 [Example 23, 1-[(3R)-3-{[5-(5-fluoropyridin-3-yl)-7H-pyrrolo[2,3-d]pyrimidin-4-yl]amino}piperidin-1-yl]prop-2-en-1-one]
4.05	C=CC(=O)N1CCC(Nc2cnc3[nH]cc(C(=O)NCC(C)(F)F)c3n2)CC1 [Example 282, 2-[(1-acryloylpiperidin-4-yl)amino]-N-(2,2-difluoropropyl)-5H-pyrrolo[2,3-b]pyrazine-7-carboxamide]
> 5.83	C=CC(=O)N1CCC(Nc2cnc3[nH]cc(C(=O)NC(C)C)c3n2)CC1 [Example 168, 2-[(1-acryloylpiperidin-4-yl)amino]-N-(propan-2-yl)-5H-pyrrolo[2,3-b]pyrazine-7-carboxamide]
0.767	C=CC(=O)N1CCC[C@@H](Nc2ncnc3[nH]cc(-c4ccc(C(=O)N(C)C)cc4)c23)C1 [Example 27, 4-(4-{[(3R)-1-acryloylpiperidin-3-yl]amino}-7H-pyrrolo[2,3-d]pyrimidin-5-yl)-N,N-dimethylbenzamide]
3.98	C=CC(=O)N1CCC(Nc2cnc3[nH]cc(C(=O)NC4CCCCC4(F)F)c3n2)CC1 (centres unmarked) [Example 256, 2-[(1-acryloylpiperidin-4-yl)amino]-N-(2,2-difluorocyclohexyl)-5H-pyrrolo[2,3-b]pyrazine-7-carboxamide]
2.77	C=CC(=O)N1CCC[C@@H](Nc2ncnc3[nH]cc(CC)c23)C1 [Example 44, 1-{(3R)-3-[(5-ethyl-7H-pyrrolo[2,3-d]pyrimidin-4-yl)amino]piperidin-1-yl}prop-2-en-1-one]
3.78	C=CC(=O)N1CCC(Oc2cnc3[nH]cc(C(=O)NC(C)C)c3n2)CC1 [Example 339, 2-((1-Acryloylpiperidin-4-yl)oxy)-N-isopropyl-5H-pyrrolo[2,3-b]pyrazine-7-carboxamide]
